These results are taken from patent US20050070510A1, “Substituted tetracycline compounds as synergistic antifungal agents” (Paratek Pharmaceuticals, Inc., priority 2001, published 2005).

This series has as its system COS-1 cells. The series is described as follows: In vitro mammalian cytotoxicity assay (Resazurin).
Regarding `CN(C)c1cc(-c2ccc(F)c(F)c2)c(O)c2c1C[C@@]1(N)C[C@@]3(N)[C@H](N(C)C)C(O)=C(C(N)=O)C(=O)[C@@]3(C#N)C(O)=C1C2=O` [EY], the “In Vitro Cytotoxicity” value is on record as “** (toxicities less than 25 μg/mL are represented by **)”.
Take `CC(=O)Nc1ccc(C#Cc2ccc(O)c3c2C[C@@]2(N)C[C@@]4(N)[C@H](N(C)C)C(O)=C(C(N)=O)C(=O)[C@@]4(C#N)C(O)=C2C3=O)cc1` [IU]: the “In Vitro Cytotoxicity” value is “* (toxicities greater than >25 μg/ml are represented by *)”.
As for `COc1ccc2c(c1)cc1c3c(c(O)ccc32)C(=O)C2=C(O)[C@]3(C#N)C(=O)C(C(N)=O)=C(O)[C@@H](N(C)C)[C@]3(N)C[C@@]21N` [OL], the “In Vitro Cytotoxicity” value is listed as “** (toxicities less than 25 μg/mL are represented by **)”.
Take `CN(C)[C@@H]1C(O)=C(C(N)=O)C(=O)[C@@]2(C#N)C(O)=C3C(=O)c4c(ccc(CNC(=O)c5ccccc5)c4O)C[C@@]3(N)C[C@@]12N` [RW]: the “In Vitro Cytotoxicity” value is “* (toxicities greater than >25 μg/ml are represented by *)”.
Under `CN(C)[C@@H]1C(O)=C(C(N)=O)C(=O)[C@@]2(C#N)C(O)=C3C(=O)c4c(O)c(C(C)(C)C)cc(-c5ccc6c(c5)OCO6)c4C[C@@]3(N)C[C@@]12N` [NT] stands “** (toxicities less than 25 μg/mL are represented by **)”; under `CCc1ccnc(-c2ccc(O)c3c2C[C@@]2(N)C[C@@]4(N)[C@H](N(C)C)C(O)=C(C(N)=O)C(=O)[C@@]4(C#N)C(O)=C2C3=O)c1` [VB], “** (toxicities less than 25 μg/mL are represented by **)”; under `CN(C)[C@@H]1C(O)=C(C(N)=O)C(=O)[C@@]2(C#N)C(O)=C3C(=O)c4c(O)c(CNC(=O)CCl)cc(-c5ccccc5)c4C[C@@]3(N)C[C@@]12N` [KD], “** (toxicities less than 25 μg/mL are represented by **)”.
Regarding `CCCCN(c1ccc2c(c1O)C(=O)C1=C(O)[C@]3(C#N)C(=O)C(C(N)=O)=C(O)[C@@H](N(C)C)[C@]3(N)[C@@H](O)[C@]1(N)[C@H]2N)C1CCN(C)CC1` [RX], the “In Vitro Cytotoxicity” value is “* (toxicities greater than >25 μg/ml are represented by *)”.
Under `CN(C)[C@@H]1C(O)=C(C(N)=O)C(=O)[C@@]2(C#N)C(O)=C3C(=O)c4c(O)ccc(-c5cccc(CN6CCOCC6)c5)c4C[C@@]3(N)C[C@@]12N` [HS] stands “* (toxicities greater than >25 μg/ml are represented by *)”.
Consider `CCCC(C)(C)NC(=O)C1=C(O)[C@@H](N(C)C)[C@]2(N)[C@@H](O)[C@@]3(N)C(=C(O)[C@]2(C#N)C1=O)C(=O)c1c(O)cccc1[C@@H]3N` [BD], for which the “In Vitro Cytotoxicity” value is “** (toxicities less than 25 μg/mL are represented by **)”.
The result for `CN(C)[C@@H]1C(O)=C(C(N)=O)C(=O)[C@@]2(C#N)C(O)=C3C(=O)c4c(O)ccc(OC5=CC(c6cccc([N+](=O)O)c6)=CC5)c4C[C@@]3(N)C[C@@]12N` [EC] reads “* (toxicities greater than >25 μg/ml are represented by *)”; that for `CN(C)c1cc(NC(=O)Nc2ccc(Cl)cc2C(F)(F)F)c(O)c2c1C[C@@]1(N)C[C@@]3(N)[C@H](N(C)C)C(O)=C(C(N)=O)C(=O)[C@@]3(C#N)C(O)=C1C2=O` [CB], “** (toxicities less than 25 μg/mL are represented by **)”.
Consider `CCCC(C)(C)NC(=O)C1=C(O)[C@@H](N(C)C)[C@]2(N)[C@@H](O)[C@@]3(N)C(=C(O)[C@]2(C#N)C1=O)C(=O)c1c(O)ccc(N(C)C)c1[C@@H]3N` [BE], for which the “In Vitro Cytotoxicity” value was “** (toxicities less than 25 μg/mL are represented by **)”.
Regarding `CN(C)[C@@H]1C(O)=C(C(N)=O)C(=O)[C@@]2(C#N)C(O)=C3C(=O)c4c(O)ccc(C5CCCC5)c4C[C@@]3(N)C[C@@]12N` [JB], the “In Vitro Cytotoxicity” value is “** (toxicities less than 25 μg/mL are represented by **)”.
As for `CN(C)c1cc(CNC(=O)Nc2ccc(F)cc2)c(O)c2c1C[C@@]1(N)C[C@@]3(N)[C@H](N(C)C)C(O)=C(C(N)=O)C(=O)[C@@]3(C#N)C(O)=C1C2=O` [MY], the “In Vitro Cytotoxicity” value is listed as “** (toxicities less than 25 μg/mL are represented by **)”.
Turning to `CN(C)c1cc(NC(=O)Nc2ccc([N+](=O)O)cc2)c(O)c2c1C[C@@]1(N)C[C@@]3(N)[C@H](N(C)C)C(O)=C(C(N)=O)C(=O)[C@@]3(C#N)C(O)=C1C2=O` [IC], the “In Vitro Cytotoxicity” value is given as “* (toxicities greater than >25 μg/ml are represented by *)”.
Under `C=CCOC(=O)Nc1ccc(-c2ccc(O)c3c2C[C@@]2(N)C[C@@]4(N)[C@H](N(C)C)C(O)=C(C(N)=O)C(=O)[C@@]4(C#N)C(O)=C2C3=O)cc1` [OZ] stands “** (toxicities less than 25 μg/mL are represented by **)”; under `CN(C)[C@@H]1C(O)=C(C(N)=O)C(=O)[C@@]2(C#N)C(O)=C3C(=O)c4c(O)cccc4[C@H](N)[C@@]3(N)[C@H]([S+](N)[O-])[C@@]12N` (stereo partly drawn) [BS], “** (toxicities less than 25 μg/mL are represented by **)”; under `CN(C)c1cc(CNC(=O)C(Cc2ccccc2)N(C)C)c(O)c2c1C[C@@]1(N)C[C@@]3(N)[C@H](N(C)C)C(O)=C(C(N)=O)C(=O)[C@@]3(C#N)C(O)=C1C2=O` (stereo partly drawn) [SU], “** (toxicities less than 25 μg/mL are represented by **)”.
In the case of `CCc1cc(N(C)C)c2c(c1O)C(=O)C1=C(O)[C@]3(C#N)C(=O)C(C(N)=O)=C(O)[C@@H](N(C)C)[C@]3(N)C[C@]1(N)C2` [QZ], the “In Vitro Cytotoxicity” value is on record as “* (toxicities greater than >25 μg/ml are represented by *)”.
In the case of `CCOc1ccc(-c2ccc(O)c3c2C[C@@]2(N)C[C@@]4(N)[C@H](N(C)C)C(O)=C(C(N)=O)C(=O)[C@@]4(C#N)C(O)=C2C3=O)cc1CN` [OR], the “In Vitro Cytotoxicity” value was “* (toxicities greater than >25 μg/ml are represented by *)”.
Turning to `CN(C)c1cc(/C=C/c2ccccc2)c(O)c2c1[C@H](N)[C@]1(N)C(=C(O)[C@]3(C#N)C(=O)C(C(N)=O)=C(O)[C@@H](N(C)C)[C@]3(N)[C@H]1O)C2=O` [BH], the “In Vitro Cytotoxicity” value is given as “** (toxicities less than 25 μg/mL are represented by **)”.
As to `CN(C)c1cc(CNC(=O)Oc2ccc(Br)cc2)c(O)c2c1C[C@@]1(N)C[C@@]3(N)[C@H](N(C)C)C(O)=C(C(N)=O)C(=O)[C@@]3(C#N)C(O)=C1C2=O` [MV], the “In Vitro Cytotoxicity” value is “** (toxicities less than 25 μg/mL are represented by **)”.
Turning to `CN(C)[C@@H]1C(O)=C(C(N)=O)C(=O)[C@@]2(C#N)C(O)=C3C(=O)c4c(ccc(NC(=O)Nc5cccc6ccccc56)c4O)[C@H](N)[C@@]3(N)[C@H](OC(=O)Nc3ccccc3)[C@@]12N` [BJ], the “In Vitro Cytotoxicity” value is on record as “** (toxicities less than 25 μg/mL are represented by **)”.
Consider `CN(C)c1cc(CN(Cc2ccn[nH]2)Cc2ccn[nH]2)c(O)c2c1C[C@@]1(N)C[C@@]3(N)[C@H](N(C)C)C(O)=C(C(N)=O)C(=O)[C@@]3(C#N)C(O)=C1C2=O` [TA], for which the “In Vitro Cytotoxicity” value is on record as “* (toxicities greater than >25 μg/ml are represented by *)”.
With `CCOc1ccc(-c2ccc(O)c3c2C[C@@]2(N)C[C@@]4(N)[C@H](N(C)C)C(O)=C(C(N)=O)C(=O)[C@@]4(C#N)C(O)=C2C3=O)cc1CNC(=O)NC(C)(C)C` [QG], the “In Vitro Cytotoxicity” value is on record as “* (toxicities greater than >25 μg/ml are represented by *)”.
With `CN(C)c1cc(NCc2ccc([N+](=O)O)cc2)c(O)c2c1C[C@@]1(N)C[C@@]3(N)[C@H](N(C)C)C(O)=C(C(N)=O)C(=O)[C@@]3(C#N)C(O)=C1C2=O` [VH], the “In Vitro Cytotoxicity” value was “** (toxicities less than 25 μg/mL are represented by **)”.
The result for `CN(C)[C@@H]1C(O)=C(C(N)=O)C(=O)[C@@]2(C#N)C(O)=C3C(=O)c4c(O)c(C(C)(C)C)cc(-c5cccc([N+](=O)O)c5)c4C[C@@]3(N)C[C@@]12N` [KS] reads “** (toxicities less than 25 μg/mL are represented by **)”; that for `CCCCOc1ccc(O)c2c1C[C@@]1(N)C[C@@]3(N)[C@H](N(C)C)C(O)=C(C(N)=O)C(=O)[C@@]3(C#N)C(O)=C1C2=O` [DL], “** (toxicities less than 25 μg/mL are represented by **)”; that for `CC(C)CC(Cc1ccc(O)c2c1C[C@@]1(N)C[C@@]3(N)[C@H](N(C)C)C(O)=C(C(N)=O)C(=O)[C@@]3(C#N)C(O)=C1C2=O)CC(C)C` [RN], “** (toxicities less than 25 μg/mL are represented by **)”.
`COc1ccc(CNCc2cccc(Cl)c2)cc1-c1ccc(O)c2c1C[C@@]1(N)C[C@@]3(N)[C@H](N(C)C)C(O)=C(C(N)=O)C(=O)[C@@]3(C#N)C(O)=C1C2=O` [NJ]: the “In Vitro Cytotoxicity” value is “** (toxicities less than 25 μg/mL are represented by **)”.
`CCOC(=O)CNCc1ccc(OC)c(-c2ccc(O)c3c2C[C@@]2(N)C[C@@]4(N)[C@H](N(C)C)C(O)=C(C(N)=O)C(=O)[C@@]4(C#N)C(O)=C2C3=O)c1` [NK]: the “In Vitro Cytotoxicity” value is reported as “* (toxicities greater than >25 μg/ml are represented by *)”.
`CCOc1ccc(/C=C2\c3cccc(O)c3C(=O)C3=C(O)[C@]4(C#N)C(=O)C(C(N)=O)=C(O)[C@@H](N(C)C)[C@]4(N)[C@@H](O)[C@@]32N)cc1` [DF]: the “In Vitro Cytotoxicity” value is reported as “** (toxicities less than 25 μg/mL are represented by **)”.
As for `COc1cc(C/C=C\c2ccc(O)c3c2C[C@@]2(N)C[C@@]4(N)[C@H](N(C)C)C(O)=C(C(N)=O)C(=O)[C@@]4(C#N)C(O)=C2C3=O)ccc1O` [HW], the “In Vitro Cytotoxicity” value is listed as “** (toxicities less than 25 μg/mL are represented by **)”.
In the case of `CCCC/C(Cl)=C/c1ccc(O)c2c1C[C@@]1(N)C[C@@]3(N)[C@H](N(C)C)C(O)=C(C(N)=O)C(=O)[C@@]3(C#N)C(O)=C1C2=O` [IH], the “In Vitro Cytotoxicity” value is on record as “** (toxicities less than 25 μg/mL are represented by **)”.
Under `CCNC(=O)Nc1cc(N(C)C)c2c(c1O)C(=O)C1=C(O)[C@]3(C#N)C(=O)C(C(N)=O)=C(O)[C@@H](N(C)C)[C@]3(N)C[C@]1(N)C2` [KJ] stands “** (toxicities less than 25 μg/mL are represented by **)”; under `CN(C)[C@@H]1C(O)=C(C(N)=O)C(=O)[C@@]2(C#N)C(O)=C3C(=O)c4c(O)cccc4[C@H](N)[C@@]3(N)[C@H](OC(=O)CN)[C@@]12N` [BV], “** (toxicities less than 25 μg/mL are represented by **)”.
Consider `C=CCC(O)c1ccc(OC)c(-c2ccc(O)c3c2C[C@@]2(N)C[C@@]4(N)[C@H](N(C)C)C(O)=C(C(N)=O)C(=O)[C@@]4(C#N)C(O)=C2C3=O)c1` (stereo partly drawn) [UE], for which the “In Vitro Cytotoxicity” value is on record as “** (toxicities less than 25 μg/mL are represented by **)”.
Regarding `CN(C)[C@@H]1C(O)=C(C(N)=O)C(=O)[C@@]2(C#N)C(O)=C3C(=O)c4c(O)ccc(-c5ccc(CN6CCCC6)o5)c4C[C@@]3(N)C[C@@]12N` [PJ], the “In Vitro Cytotoxicity” value is “* (toxicities greater than >25 μg/ml are represented by *)”.
